Laboratory results: ChEMBL document CHEMBL1157563 (J Med Chem, 2010)
One block for each compound: values may come before it. Active and inactive are the calls of the source. The rule behind the calls is not given here.

Columns and labels:
[1] = molecular target: Receptor tyrosine-protein kinase erbB-2 (Homo sapiens, UniProt P04626)
Histone deacetylase = assay type: cell-based, Homo sapiens; details: hela
Description: Inhibition of HDAC in human HeLa cell nuclear extract

[2] = molecular target: Epidermal growth factor receptor (Homo sapiens, UniProt P00533)
HepG2 [3] = experiment: Antitumor activity against human HepG2 cells xenografted in nude CD1 mouse at 25 mg/kg, po daily relative to control; assay type: functional
cells [4] = assay type: functional, cell-based, Hep 3B2; details: Homo sapiens, Hep3B
Description: Antiproliferative activity against human Hep3B2 cells after hrs by ATP content assay

HepG2 [5] = experiment: Antiproliferative activity against human HepG2 cells after hrs by ATP content assay; assay type: functional, cell-based
SK-HEP1 = experiment: cells; assay type: functional, cell-based; details: Homo sapiens
Description: Antiproliferative activity against human SKHEP1 cells after hrs by ATP content assay

MCF7 = experiment: cells; assay type: functional, cell-based; details: Homo sapiens
Description: Antiproliferative activity against human MCF7 cells after hrs by ATP content assay

SK-BR-3 = experiment: cells; assay type: functional, cell-based; details: Homo sapiens
Description: Antiproliferative activity against human SK-BR-3 cells after hrs by ATP content assay

MDA-MB-468 [6] = experiment: Antitumor activity against human MDA-MB-468 cells xenografted in nude CD1 mouse at 75 mg/kg, po bid relative to control
MDA-MB-231 = experiment: Antiproliferative activity against human MDA-MB-231 cells after hrs by ATP content assay; assay type: functional, cell-based
NCI-H358 [7] = experiment: Antitumor activity against human NCI-H358 cells xenografted in nude CD1 mouse at 15 mg/kg, iv dosed daily on 7-6-5 (on-off-on) schedule relative to control; assay type: functional
[8] = molecular target: Proto-oncogene tyrosine-protein kinase Src (Homo sapiens, UniProt P12931); experiment: Inhibition of Src
CAL-27 = experiment: Antitumor activity against human CAL27 cells xenografted in nude CD1 mouse assessed as tumor regression at 120 mg/kg, iv daily relative to control; assay type: functional
CAPAN-1 = experiment: cells; assay type: functional, cell-based; details: Homo sapiens
Description: Antiproliferative activity against human Capan1 cells after hrs by ATP content assay

[9] = molecular target: Vascular endothelial growth factor receptor 2 (Homo sapiens, UniProt P35968); experiment: Inhibition of KDR
cells [10] = assay type: functional, cell-based; details: Homo sapiens, HCC827
Description: Antiproliferative activity against human HCC827 cells after hrs by ATP content assay

[11] = molecular target: Tyrosine-protein kinase Lck (Homo sapiens, UniProt P06239); experiment: Inhibition of Lck
HPAC = experiment: Antitumor activity against human HPAC cells xenografted in nude CD1 mouse at 120 mg/kg, iv daily relative to control; assay type: functional
BXPC-3 = experiment: cells; assay type: functional, cell-based; details: Homo sapiens
Description: Antiproliferative activity against human BxPC3 cells after hrs by ATP content assay

NCI-H358 [12] = experiment: Antitumor activity against human NCI-H358 cells xenografted in nude CD1 mouse at 60 mg/kg, iv dosed daily on 7-6-5 (on-off-on) schedule relative to control; assay type: functional
[13] = molecular target: Tyrosine-protein kinase Lyn (Homo sapiens, UniProt P07948); experiment: Inhibition of Lyn
NCI-H358 [14] = experiment: Antitumor activity against human NCI-H358 cells xenografted in nude CD1 mouse at 30 mg/kg, iv dosed daily on 7-6-5 (on-off-on) schedule relative to control; assay type: functional
[15] = molecular target: Fibroblast growth factor receptor 2 (Homo sapiens, UniProt P21802); experiment: Inhibition of FGFR2
MDA-MB-468 [16] = experiment: Antitumor activity against human MDA-MB-468 cells xenografted in nude CD1 mouse assessed as tumor regression at 120 mg/kg, iv daily relative to control; assay type: functional
A549 = experiment: Antitumor activity against human A549 cells xenografted in nude CD1 mouse at 120 mg/kg, iv daily relative to control; assay type: functional
[17] = molecular target: NAD-dependent protein deacetylase sirtuin-3, mitochondrial (Homo sapiens) (UniProt Q9NTG7); experiment: Inhibition of human SIRT3 expressed in Escherichia coli
[18] = molecular target: Receptor-type tyrosine-protein kinase FLT3 (Homo sapiens, UniProt P36888); experiment: Inhibition of Flt3
NCI-H460 = experiment: cells; assay type: functional, cell-based; details: Homo sapiens
Description: Antiproliferative activity against human H460 cells after hrs by ATP content assay

NCI-H358 [19] = experiment: cells; assay type: functional, cell-based; details: Homo sapiens
Description: Antiproliferative activity against human NCI-H358 cells after hrs by ATP content assay

[20] = molecular target: NAD-dependent protein deacetylase sirtuin-1 (Homo sapiens) (UniProt Q96EB6); experiment: Inhibition of human SIRT1 expressed in Escherichia coli
[21] = molecular target: NAD-dependent protein deacetylase sirtuin-2 (Homo sapiens) (UniProt Q8IXJ6); experiment: Inhibition of human SIRT2 expressed in Escherichia coli
HCT-116 = experiment: Antitumor activity against human HCT116 cells xenografted in nude CD1 mouse at 60 mg/kg, iv dosed daily on 5-2-5 (on-off-on) schedule relative to control; assay type: functional
HepG2 [22] = experiment: Antitumor activity against human HepG2 cells xenografted in nude CD1 mouse assessed as tumor regression at 120 mg/kg, iv daily relative to control; assay type: functional
HepG2 [23] = experiment: Antitumor activity against human HepG2 cells xenografted in nude CD1 mouse at 72 mg/kg, iv daily relative to control; assay type: functional

Epidermal growth factor receptor, sequence (P00533 whole entry): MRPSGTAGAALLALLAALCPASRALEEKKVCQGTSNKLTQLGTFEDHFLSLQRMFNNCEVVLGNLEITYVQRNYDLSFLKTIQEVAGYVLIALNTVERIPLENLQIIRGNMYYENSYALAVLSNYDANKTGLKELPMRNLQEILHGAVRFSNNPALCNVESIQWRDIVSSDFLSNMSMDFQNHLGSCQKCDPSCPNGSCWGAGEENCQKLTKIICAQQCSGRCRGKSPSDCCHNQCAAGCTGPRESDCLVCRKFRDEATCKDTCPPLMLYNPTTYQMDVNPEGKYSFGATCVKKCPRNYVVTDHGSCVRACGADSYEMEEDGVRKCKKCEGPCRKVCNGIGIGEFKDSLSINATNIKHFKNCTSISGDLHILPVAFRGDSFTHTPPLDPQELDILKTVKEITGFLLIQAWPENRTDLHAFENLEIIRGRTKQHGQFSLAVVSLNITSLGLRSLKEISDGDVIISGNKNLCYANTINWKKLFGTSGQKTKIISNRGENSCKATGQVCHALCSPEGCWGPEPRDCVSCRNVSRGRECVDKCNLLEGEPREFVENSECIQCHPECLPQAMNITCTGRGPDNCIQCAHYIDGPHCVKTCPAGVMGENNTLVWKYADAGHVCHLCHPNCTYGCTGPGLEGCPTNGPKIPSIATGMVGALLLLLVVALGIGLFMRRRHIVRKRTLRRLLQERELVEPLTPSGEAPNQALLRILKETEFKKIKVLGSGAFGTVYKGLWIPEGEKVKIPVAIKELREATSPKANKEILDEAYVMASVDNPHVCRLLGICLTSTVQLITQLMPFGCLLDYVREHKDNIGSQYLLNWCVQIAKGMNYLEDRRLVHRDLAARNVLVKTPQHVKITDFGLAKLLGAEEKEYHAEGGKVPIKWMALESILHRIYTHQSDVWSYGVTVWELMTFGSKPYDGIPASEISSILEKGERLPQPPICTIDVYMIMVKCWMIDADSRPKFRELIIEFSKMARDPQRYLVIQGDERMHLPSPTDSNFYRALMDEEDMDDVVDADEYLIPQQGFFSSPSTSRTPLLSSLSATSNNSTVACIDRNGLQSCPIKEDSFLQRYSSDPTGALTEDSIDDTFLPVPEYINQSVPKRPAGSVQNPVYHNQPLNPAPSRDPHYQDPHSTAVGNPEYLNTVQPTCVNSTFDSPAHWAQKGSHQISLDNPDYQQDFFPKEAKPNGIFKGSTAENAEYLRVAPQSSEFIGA
Receptor tyrosine-protein kinase erbB-2, sequence (P04626 whole entry): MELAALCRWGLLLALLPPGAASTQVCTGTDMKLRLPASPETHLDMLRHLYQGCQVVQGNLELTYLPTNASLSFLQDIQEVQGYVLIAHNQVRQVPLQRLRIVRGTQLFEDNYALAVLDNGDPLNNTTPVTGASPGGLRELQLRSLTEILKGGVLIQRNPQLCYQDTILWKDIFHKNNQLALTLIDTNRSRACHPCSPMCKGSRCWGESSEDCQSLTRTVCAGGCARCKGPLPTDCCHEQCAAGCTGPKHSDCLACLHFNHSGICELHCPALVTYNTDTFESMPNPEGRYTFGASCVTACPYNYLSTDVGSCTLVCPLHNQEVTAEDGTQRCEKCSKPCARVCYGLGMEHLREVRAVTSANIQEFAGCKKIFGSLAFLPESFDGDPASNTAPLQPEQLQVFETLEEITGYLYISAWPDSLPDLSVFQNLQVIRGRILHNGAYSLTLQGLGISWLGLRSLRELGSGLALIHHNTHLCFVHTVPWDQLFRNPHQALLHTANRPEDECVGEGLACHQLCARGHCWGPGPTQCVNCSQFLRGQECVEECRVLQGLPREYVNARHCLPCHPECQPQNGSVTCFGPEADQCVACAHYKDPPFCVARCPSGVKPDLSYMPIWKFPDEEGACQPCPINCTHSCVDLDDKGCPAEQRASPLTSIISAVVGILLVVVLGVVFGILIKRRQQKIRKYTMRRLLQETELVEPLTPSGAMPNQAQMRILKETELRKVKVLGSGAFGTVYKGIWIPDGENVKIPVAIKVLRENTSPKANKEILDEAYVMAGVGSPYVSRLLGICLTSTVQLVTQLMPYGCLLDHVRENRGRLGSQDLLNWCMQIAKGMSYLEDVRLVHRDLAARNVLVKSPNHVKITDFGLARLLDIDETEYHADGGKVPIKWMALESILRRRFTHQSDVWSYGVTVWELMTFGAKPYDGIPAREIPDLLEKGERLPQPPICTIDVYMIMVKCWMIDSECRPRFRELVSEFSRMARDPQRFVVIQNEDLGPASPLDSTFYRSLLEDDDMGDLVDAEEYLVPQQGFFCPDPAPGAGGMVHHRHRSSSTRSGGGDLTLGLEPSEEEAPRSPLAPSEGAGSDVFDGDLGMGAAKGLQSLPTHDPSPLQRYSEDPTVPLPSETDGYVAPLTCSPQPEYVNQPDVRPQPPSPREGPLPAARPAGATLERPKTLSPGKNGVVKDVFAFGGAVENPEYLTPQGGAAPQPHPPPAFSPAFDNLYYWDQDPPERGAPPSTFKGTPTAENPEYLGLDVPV
NAD-dependent protein deacetylase sirtuin-3, mitochondrial (Homo sapiens), sequence (Q9NTG7 whole entry): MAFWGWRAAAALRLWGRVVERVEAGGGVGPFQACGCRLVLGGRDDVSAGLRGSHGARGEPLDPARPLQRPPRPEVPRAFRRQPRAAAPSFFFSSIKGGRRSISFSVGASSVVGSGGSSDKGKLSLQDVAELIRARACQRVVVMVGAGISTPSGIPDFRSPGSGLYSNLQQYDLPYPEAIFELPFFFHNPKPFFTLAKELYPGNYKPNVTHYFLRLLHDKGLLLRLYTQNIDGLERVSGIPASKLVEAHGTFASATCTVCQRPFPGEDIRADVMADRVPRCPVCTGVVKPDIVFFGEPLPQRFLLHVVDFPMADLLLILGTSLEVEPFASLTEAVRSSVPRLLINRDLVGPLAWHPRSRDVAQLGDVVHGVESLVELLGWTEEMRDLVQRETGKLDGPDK
Tyrosine-protein kinase Lck, sequence (P06239 whole entry): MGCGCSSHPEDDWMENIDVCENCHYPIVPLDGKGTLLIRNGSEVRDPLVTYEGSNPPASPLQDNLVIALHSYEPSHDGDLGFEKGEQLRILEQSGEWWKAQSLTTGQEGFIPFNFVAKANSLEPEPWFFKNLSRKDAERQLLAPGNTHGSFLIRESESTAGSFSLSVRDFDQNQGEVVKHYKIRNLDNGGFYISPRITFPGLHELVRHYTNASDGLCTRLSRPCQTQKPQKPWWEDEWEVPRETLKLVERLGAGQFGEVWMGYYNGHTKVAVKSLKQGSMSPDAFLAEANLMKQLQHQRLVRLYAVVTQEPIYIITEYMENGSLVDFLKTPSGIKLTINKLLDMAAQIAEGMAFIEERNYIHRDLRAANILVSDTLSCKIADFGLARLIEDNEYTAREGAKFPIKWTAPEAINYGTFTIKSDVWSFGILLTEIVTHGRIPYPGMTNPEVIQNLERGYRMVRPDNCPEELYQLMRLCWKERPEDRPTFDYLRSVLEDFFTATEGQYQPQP
Fibroblast growth factor receptor 2, sequence (P21802 whole entry): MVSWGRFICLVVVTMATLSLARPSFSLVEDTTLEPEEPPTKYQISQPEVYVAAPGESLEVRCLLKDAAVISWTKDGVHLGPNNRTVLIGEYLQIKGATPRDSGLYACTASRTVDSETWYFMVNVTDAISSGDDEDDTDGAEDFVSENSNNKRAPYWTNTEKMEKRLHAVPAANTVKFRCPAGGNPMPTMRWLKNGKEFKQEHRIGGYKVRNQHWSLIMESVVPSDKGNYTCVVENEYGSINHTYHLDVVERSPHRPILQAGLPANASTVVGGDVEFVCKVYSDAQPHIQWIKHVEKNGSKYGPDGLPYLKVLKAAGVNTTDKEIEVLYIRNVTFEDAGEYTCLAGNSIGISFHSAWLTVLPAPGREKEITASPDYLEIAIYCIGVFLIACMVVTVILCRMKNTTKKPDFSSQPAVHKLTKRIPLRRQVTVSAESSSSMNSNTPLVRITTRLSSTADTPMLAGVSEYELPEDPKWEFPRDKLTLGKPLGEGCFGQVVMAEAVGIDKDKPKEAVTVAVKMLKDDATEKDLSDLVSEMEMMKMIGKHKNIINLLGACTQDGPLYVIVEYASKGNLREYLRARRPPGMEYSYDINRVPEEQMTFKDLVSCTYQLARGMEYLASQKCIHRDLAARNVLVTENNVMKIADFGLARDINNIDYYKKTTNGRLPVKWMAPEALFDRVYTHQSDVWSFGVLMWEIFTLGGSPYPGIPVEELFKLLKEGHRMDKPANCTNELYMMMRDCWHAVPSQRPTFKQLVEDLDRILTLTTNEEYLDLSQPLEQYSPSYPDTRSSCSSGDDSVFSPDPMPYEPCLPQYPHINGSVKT
NAD-dependent protein deacetylase sirtuin-2 (Homo sapiens), sequence (Q8IXJ6 whole entry): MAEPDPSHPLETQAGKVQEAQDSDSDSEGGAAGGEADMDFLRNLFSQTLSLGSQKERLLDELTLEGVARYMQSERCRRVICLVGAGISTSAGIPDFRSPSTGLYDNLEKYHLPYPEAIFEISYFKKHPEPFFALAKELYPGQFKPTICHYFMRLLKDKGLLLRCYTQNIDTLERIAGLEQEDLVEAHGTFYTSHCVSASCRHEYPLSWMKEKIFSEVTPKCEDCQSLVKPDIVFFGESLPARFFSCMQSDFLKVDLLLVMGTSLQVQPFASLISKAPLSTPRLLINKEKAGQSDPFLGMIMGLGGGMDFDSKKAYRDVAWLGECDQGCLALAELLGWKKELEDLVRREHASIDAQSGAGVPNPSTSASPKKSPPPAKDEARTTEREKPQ

IC50 [1]: 24.2 nM | IC50 (Histone deacetylase): 39.6 nM | IC50 [2]: 1.99 nM
Compound: COc1cc2ncnc(Nc3ccc(F)c(Cl)c3)c2cc1SCCCCCCC(=O)NO

IC50 [1]: 51.6 nM | IC50 (Histone deacetylase): 34.1 nM | IC50 [2]: 8.2 nM
Compound: C#Cc1cccc(Nc2ncnc3cc(OCCCCCCC(=O)NO)c(OC)cc23)c1

IC50 [1]: 15 nM | IC50 (Histone deacetylase): 551 nM | IC50 [2]: 9.4 nM
Compound: COc1cc2ncnc(Nc3ccc(F)c(Cl)c3)c2cc1OCCCCC(=O)NO

IC50 [1]: 27.8 nM | IC50 (Histone deacetylase): 98.4 nM
Compound: COc1cc2ncnc(N[C@H](C)c3ccccc3)c2cc1OCCCCCCC(=O)NO

Compound: C#Cc1cccc(Nc2ncnc3cc(OCCOC)c(OCCOC)cc23)c1 [ERLOTINIB]
Activity (HepG2 [3]): 50.8%

IC50 [1]: 175 nM | IC50 (Histone deacetylase): 165.3 nM | IC50 [2]: 126 nM
Compound: COc1cc2ncnc(NC(C)c3ccc(F)cc3)c2cc1OCCCCCCC(=O)NO (single isomer, unassigned)

IC50 [1]: 38.4 nM | IC50 (Histone deacetylase): 421 nM
Compound: C#Cc1cccc(Nc2ncnc3cc(OC)c(OCCCCC(=O)NO)cc23)c1

IC50 [1]: 76.5 nM | IC50 (Histone deacetylase): 3.4 nM | IC50 [2]: 28.8 nM
Compound: C#Cc1cc(Nc2ncnc3cc(OC)c(OCCCCCCC(=O)NO)cc23)ccc1F

IC50 [1]: > 2000 nM | IC50 (Histone deacetylase): 121.7 nM | IC50 [2]: 15.4 nM
Compound: COc1cc2ncnc(Nc3ccc(F)c(Cl)c3)c2cc1S(=O)(=O)CCCCCCC(=O)NO

IC50 (cells [4]): 5490 nM | IC50 (HepG2 [5]): 6270 nM | IC50 (SK-HEP1): 5300 nM | IC50 (MCF7): 6600 nM | IC50 (SK-BR-3): 40 nM | IC50 (MDA-MB-231): 5400 nM
Compound: CS(=O)(=O)CCNCc1ccc(-c2ccc3ncnc(Nc4ccc(OCc5cccc(F)c5)c(Cl)c4)c3c2)o1 [LAPATINIB]
Activity (MDA-MB-468 [6]): 51%

IC50 [1]: 225 nM | IC50 (Histone deacetylase): 4.2 nM | IC50 [2]: 99.4 nM
Compound: COc1cc2ncnc(NCc3ccccc3)c2cc1OCCCCCCC(=O)NO

IC50 [1]: 12.4 nM | IC50 (Histone deacetylase): > 100000 nM | IC50 [2]: 7.8 nM
Compound: COc1cc2ncnc(Nc3ccc(F)c(Cl)c3)c2cc1OCCCC(=O)NO

IC50 [1]: 10.6 nM | IC50 (Histone deacetylase): 40900 nM | IC50 [2]: 7.1 nM
Compound: COc1cc2ncnc(Nc3ccc(F)c(Cl)c3)c2cc1OCCC(=O)NO

IC50 [1]: 43.5 nM | IC50 (Histone deacetylase): 4.4 nM | IC50 [2]: 84.2 nM
Compound: O=C(CCCCCCOc1ccc2ncnc(Nc3ccc(F)c(Cl)c3)c2c1)NO

IC50 (cells [4]): 230 nM | IC50 [8]: 11000 nM | IC50 (CAPAN-1): 800 nM | IC50 (HepG2 [5]): 130 nM | IC50 [9]: 849 nM | IC50 (SK-HEP1): 220 nM | IC50 (cells [10]): 600 nM | IC50 [11]: 5910 nM | IC50 (BXPC-3): 270 nM | IC50 (MCF7): 550 nM | IC50 (SK-BR-3): 40 nM | IC50 [13]: 840 nM | IC50 [15]: 3430 nM | Activity [17]: inactive | IC50 [18]: 1500 nM | IC50 (MDA-MB-231): 100 nM | IC50 (NCI-H460): 700 nM | IC50 (NCI-H358 [19]): 400 nM | Activity [20]: inactive | Activity [21]: inactive
Compound: C#Cc1cccc(Nc2ncnc3cc(OC)c(OCCCCCCC(=O)NO)cc23)c1 [CUDC-101]
Activity (NCI-H358 [7]): 41.9% | Activity (CAL-27): -36.5% | Activity (HPAC): 35.1% | Activity (NCI-H358 [12]): 6.5% | Activity (NCI-H358 [14]): 10.3% | Activity (MDA-MB-468 [16]): -13.7% | Activity (A549): 35.9% | Activity (HCT-116): 35.3% | Activity (HepG2 [22]): -21.3%

IC50 [1]: 10.1 nM | IC50 (Histone deacetylase): 58.1 nM | IC50 [2]: 9.08 nM
Compound: COc1cc2ncnc(Nc3ccc(OCc4cccc(F)c4)c(Cl)c3)c2cc1OCCCCCCC(=O)NO

IC50 [1]: 38.2 nM | IC50 (Histone deacetylase): 13.2 nM | IC50 [2]: 4.6 nM
Compound: C#Cc1cccc(Nc2ncnc3cc(OC)c(OCCCCCC(=O)NO)cc23)c1

IC50 [1]: 24 nM | IC50 (Histone deacetylase): 8.4 nM | IC50 [2]: 10.4 nM
Compound: COCCOc1cc2ncnc(Nc3ccc(F)c(Cl)c3)c2cc1OCCCCCCC(=O)NO

IC50 (HepG2 [5]): 1660 nM | IC50 (MDA-MB-231): 2110 nM
Compound: O=C(CCCCCCC(=O)Nc1ccccc1)NO [VORINOSTAT]
Activity (HepG2 [23]): 26%

IC50 (cells [4]): 600 nM | IC50 (CAPAN-1): 1730 nM | IC50 [1]: 19 nM | IC50 (HepG2 [5]): 290 nM | IC50 (SK-HEP1): 330 nM | IC50 (Histone deacetylase): 6.5 nM | IC50 (cells [10]): 930 nM | IC50 (BXPC-3): 380 nM | IC50 (MCF7): 1100 nM | IC50 (SK-BR-3): 170 nM | IC50 (MDA-MB-231): 370 nM | IC50 (NCI-H460): 900 nM | IC50 (NCI-H358 [19]): 710 nM
Compound: COc1cc2ncnc(Nc3ccc(F)c(Cl)c3)c2cc1OCCCCCCC(=O)NO

IC50 [1]: > 2000 nM | IC50 (Histone deacetylase): 25.7 nM
Compound: COc1cc2ncnc(N[C@@H](C)c3ccccc3)c2cc1OCCCCCCC(=O)NO

IC50 [1]: 20.1 nM | IC50 (Histone deacetylase): 15.3 nM | IC50 [2]: 2.1 nM
Compound: COc1cc2ncnc(Nc3ccc(F)c(Cl)c3)c2cc1NC(=O)CCCCCCC(=O)NO

IC50 [1]: 71.2 nM | IC50 (Histone deacetylase): 66.6 nM | IC50 [2]: 7 nM
Compound: COc1cc2c(Nc3ccc(F)c(Cl)c3)ncnc2cc1OCCCCCCC(=O)NO

IC50 [1]: 295 nM | IC50 (Histone deacetylase): 5.6 nM
Compound: COc1cc2ncnc(NCc3ccc(F)cc3)c2cc1OCCCCCCC(=O)NO

IC50 [1]: 20 nM | IC50 (Histone deacetylase): 31 nM | IC50 [2]: 3.4 nM
Compound: COc1cc2ncnc(Nc3ccc(F)c(Cl)c3)c2cc1OCCCCCC(=O)NO

IC50 [1]: 478 nM | IC50 (Histone deacetylase): 11.3 nM | IC50 [2]: 72 nM
Compound: COc1cc2ncnc(NCc3ccc(Cl)c(F)c3)c2cc1OCCCCCCC(=O)NO

IC50 [1]: 557 nM | IC50 (Histone deacetylase): 188 nM | IC50 [2]: 614 nM
Compound: COc1cc2ncnc(NC(C)c3ccc(Cl)cc3)c2cc1OCCCCCCC(=O)NO (single isomer, unassigned)
